Measured values from patent US20060252807A1, “Novel ortho-terphenyl inhibitors of p38 kinase and methods of treating inflammatory disorders” (Kalypsys, Inc., priority 2005, published 2006).

target: T1, active p38 alpha enzyme (Upstate Biotechnology) (Homo sapiens, UniProt Q16539); assay: p38α biochemical assay (ATP turnover, luminescent detection, Cambrex PKlight); details: p38α kinase; Table 1 Biological Activity
T1 construct: purchased Upstate Biotechnology
How it was run: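 Active human p38α was incubated with full-length MapkapK2 protein as substrate and 1.4 uM ATP (final) for 2 hours at 30C. Buffer: 200 mM Tris, 100 mM MgCl2, 1.5 mM EGTA, 4 mM CaCl2, 20 mM MOPS, 1 mM EDTA, 1% glycerol, 0.1% β-mercaptoethanol, 1 mg/ml BSA. Total ATP turnover read by luminescence.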

T1 sequence (Q16539 whole entry): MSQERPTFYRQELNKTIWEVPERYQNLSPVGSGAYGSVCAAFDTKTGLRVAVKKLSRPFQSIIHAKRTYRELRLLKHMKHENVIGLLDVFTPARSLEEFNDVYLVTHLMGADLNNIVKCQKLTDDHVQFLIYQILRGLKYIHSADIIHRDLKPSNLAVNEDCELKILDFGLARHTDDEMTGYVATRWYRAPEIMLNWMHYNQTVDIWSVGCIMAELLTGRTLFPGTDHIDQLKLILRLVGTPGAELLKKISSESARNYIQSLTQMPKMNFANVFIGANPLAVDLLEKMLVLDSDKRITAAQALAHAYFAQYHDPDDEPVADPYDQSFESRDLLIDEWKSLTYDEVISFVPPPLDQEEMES

Compound	IC50 [nM]
O=C(NCc1ccccc1OC(F)(F)F)c1csc(-c2c(-c3ccc(F)cc3)n[nH]c2C2CCNCC2)n1 [Example 2152]	> 1000
NS(=O)(=O)c1ccc(CCNC(=O)c2csc(-c3c(-c4ccc(F)cc4)n[nH]c3C3CCNCC3)n2)cc1 [Example 2153]	> 1000
COc1ccc(C(=O)CNC(=O)c2csc(-c3c(-c4ccc(F)cc4)n[nH]c3C3CCNCC3)n2)cc1 [Example 2154]	> 1000
O=C(NCCc1ccc2c(c1)OCO2)c1csc(-c2c(-c3ccc(F)cc3)n[nH]c2C2CCNCC2)n1 [Example 2155]	> 1000
O=C(NCCC(c1ccccc1)c1ccccc1)c1csc(-c2c(-c3ccc(F)cc3)n[nH]c2C2CCNCC2)n1 [Example 2156]	> 1000
Cc1ccc(S(=O)(=O)NCCNC(=O)c2csc(-c3c(-c4ccc(F)cc4)n[nH]c3C3CCNCC3)n2)cc1 [Example 2157]	> 1000
Cc1nc(-c2ccc(F)cc2)c(-c2nc(C(=O)NC(C)C)cs2)[nH]1 [Example 2158, 2-|5-(4-Fluoro-phenyl)-2-methyl-3H-imidazol-4-yl|-thiazole-4-carboxylic acid isopropylamide]	≤ 1000
Cc1nc(-c2ccc(F)cc2)c(-c2nc(C(N)=O)cs2)o1 [Example 2159, 2-|4-(4-Fluoro-phenyl)-2-methyl-oxazol-5-yl|-thiazole-4-carboxylic acid amide]	> 1000
CC(C)NC(=O)c1coc(-c2c(-c3ccc(F)cc3)noc2C2CCNCC2)n1 [Example 2160, 2-|3-(4-Fluoro-phenyl)-5-piperidin-4-yl-isoxazol-4-yl|-oxazole-4-carboxylic acid isopropylamide]	≤ 1000
COCCOCn1nc(-c2ccc(F)cc2)c(-c2nc(C=O)cs2)c1C [Example 2161, 2-|3-(4-Fluoro-phenyl)-1-(2-methoxy-ethoxymethyl)-5-methyl-1H-pyrazol-4-yl|-thiazole-4-carbaldehyde]	> 1000
CC(C)NC(=O)c1csc(-c2c(-c3ccc(Cl)cc3)ncn2C2CCNCC2)n1 [Example 2162, 2-|5-(4-Chloro-phenyl)-3-piperidin-4-yl-3H-imidazol-4-yl|-thiazole-4-carboxylic acid isopropylamide]	> 1000
CC(=O)N1CCC(n2cnc(-c3ccc(Cl)cc3)c2-c2nc(C(=O)NC(C)C)cs2)CC1 [Example 2163]	≤ 1000
CC(C)NC(=O)c1csc(-c2[nH][nH]c(=O)c2-c2ccc(F)cc2)n1 [Example 2180, 2-|4-(4-Fluoro-phenyl)-5-oxo-2,5-dihydro-1H-pyrazol-3-yl|-thiazole-4-carboxylic acid isopropylamide]	≤ 1000
CC(C)NC(=O)c1csc(-c2c(-c3ccc(F)cc3)c(=O)[nH]n2C)n1 [Example 2182, 2-|4-(4-Fluoro-phenyl)-2-methyl-5-oxo-2,5-dihydro-1H-pyrazol-3-yl|-thiazole-4-carboxylic acid isopropyl amide]	> 1000
CC(C)NC(=O)c1csc(-c2c(-c3ccc(F)cc3)c(=O)[nH]n2C2CCN(C(=O)OCc3ccccc3)CC2)n1 [Example 2183, 4-|4-(4-Fluoro-phenyl)-5-(4-isopropylcarbamoyl-thiazol-2-yl)-3-oxo-2,3-dihydro-pyrazol-1-yl|-piperidine-1-carboxylic acid benzyl ester]	> 1000
CC(=O)N1CCC(c2onc(-c3ccc(F)cc3)c2-c2nc(C(=O)NC(C)C)cs2)CC1 [Example 2184, 2-|5-(1-Acetyl-piperidin-4-yl)-3-(4-fluoro-phenyl)-isoxazol-4-yl|-thiazole-4-carboxylic acid isopropylamide]	≤ 1000
O=C(NCC(F)(F)F)c1csc(-c2c(-c3ccc(F)cc3)ncn2C2CCNCC2)n1 [Example 2185, 2-|5-(4-Fluoro-phenyl)-3-piperidin-4-yl-3H-imidazol-4-yl|-thiazole-4-carboxylic acid (2,2,2-trifluoro-ethyl)-amide]	≤ 1000
CC(C)NC(=O)c1ccn(-c2c(-c3ccc(F)cc3)noc2C2CCNCC2)n1 [Example 2188, 1-|3-(4-Fluoro-phenyl)-5-piperidin-4-yl-isoxazol-4-yl|-1H-pyrazole-3-carboxylic acid isopropylamide]	> 1000
CC(C)NC(=O)c1csc(-c2c(-c3ccc(F)cc3)ncn2C2CC(C)(C)NC(C)(C)C2)n1 [Example 2189, 2-|5-(4-Fluoro-phenyl)-3-(2,2,6,6-tetramethyl-piperidin-4-yl)-3H-imidazol-4-yl|-thiazole-4-carboxylic acid isopropylamide]	> 1000
O=C(NC1CCCC1)c1csc(-c2c(-c3ccc(F)cc3)ncn2C2CCNCC2)n1 [Example 2190, 2-|5-(4-Fluoro-phenyl)-3-piperidin-4-yl-3H-imidazol-4-yl|-thiazole-4-carboxylic acid cyclopentylamide]	≤ 1000

The next lines start with the values.

IC50 [nM]	Compound
≤ 1000	CC(C)NC(=O)c1csc(-c2c(-c3ccc(F)cc3)n[nH]c2C2CCN(C(=O)[C@H](C)O)CC2)n1 [Example 2165, 2-{3-(4-Fluoro-phenyl)-5-|1-(2-hydroxy-propionyl)-piperidin-4-yl|-1H-pyrazol-4-yl}-thiazole-4-carboxylic acid isopropylamide]
≤ 1000	CC(C)NC(=O)c1csc(-c2c(-c3ccc(F)cc3)n[nH]c2C2CCN(C(=O)C(C)(C)O)CC2)n1 [Example 2166, 2-{3-(4-Fluoro-phenyl)-5-|1-(2-hydroxy-2-methyl-propionyl)-piperidin-4-yl|-1H-pyrazol-4-yl}-thiazole-4-carboxylic acid isopropylamide]
≤ 1000	CC(=O)N1CCC(c2[nH]nc(-c3ccc(F)cc3)c2-c2nc(C(=O)NC(C)C)cs2)CC1 [Example 2167, 2-|5-(1-Acetyl-piperidin-4-yl)-3-(4-fluoro-phenyl)-1H-pyrazol-4-yl|-thiazole-4-carboxylic acid isopropylamide]
≤ 1000	COCCOCC(=O)N1CCC(c2[nH]nc(-c3ccc(F)cc3)c2-c2nc(C(=O)NC(C)C)cs2)CC1 [Example 2168, 2-(3-(4-Fluoro-phenyl)-5-{1-|2-(2-methoxy-ethoxy)-acetyl|-piperidin-4-yl}-1H-pyrazol-4-yl)-thiazole-4-carboxylic acid isopropylamide]
≤ 1000	CC(C)NC(=O)c1csc(-c2c(-c3ccc(F)cc3)n[nH]c2C2CCN(C(=O)c3ccccn3)CC2)n1 [Example 2169, 2-{3-(4-Fluoro-phenyl)-5-|1-(pyridine-2-carbonyl)-piperidin-4-yl|-1H-pyrazol-4-yl}-thiazole-4-carboxylic acid isopropylamide]
> 1000	CC(C)NC(=O)c1csc(-c2c(-c3ccc(F)cc3)n[nH]c2C2CCN(C(=O)c3ccccc3)CC2)n1 [Example 2170, 2-|5-(1-Benzoyl-piperidin-4-yl)-3-(4-fluoro-phenyl)-1H-pyrazol-4-yl|-thiazole-4-carboxylic acid isopropylamide]
> 1000	CC(C)NC(=O)c1csc(-c2c(-c3ccc(F)cc3)n[nH]c2C2CCN(C(=O)c3ccc(C#N)cc3)CC2)n1 [Example 2171, 2-|5-|1-(4-Cyano-benzoyl)-piperidin-4-yl|-3-(4-fluoro-phenyl)-1H-pyrazol-4-yl|-thiazole-4-carboxylic acid isopropylamide]
≤ 1000	COC(=O)N1CCC(c2[nH]nc(-c3ccc(F)cc3)c2-c2nc(C(=O)NC(C)C)cs2)CC1 [Example 2172, 4-|5-(4-Fluoro-phenyl)-4-(4-isopropyl-carbamoyl-thiazol-2-yl)-2H-pyrazol-3-yl|-piperidine-1-carboxylic acid methyl ester]
≤ 1000	COCC(=O)N1CCC(c2[nH]nc(-c3ccc(F)cc3)c2-c2nc(C(=O)NC(C)C)cs2)CC1 [Example 2173, 2-{3-(4-Fluoro-phenyl)-5-|1-(2-methoxy-acetyl)-piperidin-4-yl|-1H-pyrazol-4-yl}-thiazole-4-carboxylic acid isopropylamide]
≤ 1000	CC(C)NC(=O)c1csc(-c2c(-c3ccc(F)cc3)n[nH]c2C2CCN(C(=O)C(F)(F)F)CC2)n1 [Example 2174, 2-{3-(4-Fluoro-phenyl)-5-|1-(2,2,2-trifluoro-acetyl)-piperidin-4-yl|-1H-pyrazol-4-yl}-thiazole-4-carboxylic acid isopropylamide]
≤ 1000	CC(C)NC(=O)c1csc(-c2c(-c3ccc(F)cc3)n[nH]c2C2CCN(C(=O)c3ncc[nH]3)CC2)n1 [Example 2175, 2-{3-(4-Fluoro-phenyl)-5-|1-(1H-imidazole-2-carbonyl)-piperidin-4-yl|-1H-pyrazol-4-yl}-thiazole-4-carboxylic acid isopropylamide]
≤ 1000	CC(=O)C(=O)N1CCC(c2[nH]nc(-c3ccc(F)cc3)c2-c2nc(C(=O)NC(C)C)cs2)CC1 [Example 2176, 2-{3-(4-Fluoro-phenyl)-5-|1-(2-oxo-propionyl)-piperidin-4-yl|-1H-pyrazol-4-yl}-thiazole-4-carboxylic acid isopropylamide]
≤ 1000	CC(=O)NCC(=O)N1CCC(c2[nH]nc(-c3ccc(F)cc3)c2-c2nc(C(=O)NC(C)C)cs2)CC1 [Example 2177, 2-|5-|1-(2-Acetylamino-acetyl)-piperidin-4-yl|-3-(4-fluoro-phenyl)-1H-pyrazol-4-yl|-thiazole-4-carboxylic acid isopropylamide]
≤ 1000	CC(C)NC(=O)c1csc(-c2c(-c3ccc(F)cc3)n[nH]c2C2CCN(C(=O)c3ccncc3)CC2)n1 [Example 2178, 2-{3-(4-Fluoro-phenyl)-5-|1-(pyridine-4-carbonyl)-piperidin-4-yl|-1H-pyrazol-4-yl}-thiazole-4-carboxylic acid isopropylamide]
≤ 1000	CC(C)NC(=O)c1csc(-c2c(-c3ccc(F)cc3)n[nH]c2C2CCN(C(=O)c3cccnc3)CC2)n1 [Example 2179, 2-{3-(4-Fluoro-phenyl)-5-|1-(pyridine-3-carbonyl)-piperidin-4-yl|-1H-pyrazol-4-yl}-thiazole-4-carboxylic acid isopropylamide]
